MIC and Ratio data for eleven compounds are collected here from ChEMBL document CHEMBL3425423, “Hydroxy tricyclic 1,5-naphthyridinone oxabicyclooctane-linked novel bacterial topoisomerase inhibitors as broad-spectrum antibacterial agents-SAR of RHS moiety (Part-3)” (Bioorg Med Chem Lett, 2015).

What all share (format): functional
Test [1] relates to Staphylococcus aureus. The test is described as follows: Antibacterial activity against Staphylococcus aureus Smith. To be noted: Staphylococcus aureus, Smith; read-out: MIC.
Test [2] deals with Streptococcus pneumoniae. Put plainly: Antibacterial activity against Streptococcus pneumoniae IID554. The following applies: Streptococcus pneumoniae, IID554; read-out: MIC.
Test [3] deals with Enterococcus faecalis. Put plainly: Antibacterial activity against Enterococcus faecalis ATCC 29212. To be noted: Enterococcus faecalis, ATCC 29212; read-out: MIC.
Test [4] deals with Escherichia coli. The test is described as follows: Antibacterial activity against Escherichia coli ATCC 25922. To be noted: Escherichia coli, ATCC 25922; read-out: MIC.
The test system of test [5] is Acinetobacter baumannii. The test is described as follows: Antibacterial activity against Acinetobacter baumannii IID876. To be noted: Acinetobacter baumannii, IID876; read-out: MIC.
Test [6] has as its system Pseudomonas aeruginosa. Put plainly: Antibacterial activity against Pseudomonas aeruginosa PAO1. The following applies: Pseudomonas aeruginosa, PAO1; read-out: MIC.
The test system of test [7] is Haemophilus influenzae. Put plainly: Antibacterial activity against Haemophilus influenzae ATCC 49247. To be noted: Haemophilus influenzae, ATCC 49247; read-out: MIC.
For test [8], the system named is Moraxella catarrhalis. The test is described as follows: Antibacterial activity against Moraxella catarrhalis ATCC 25238. The following applies: Moraxella catarrhalis, ATCC 25238; read-out: MIC.
Test [9] relates to Enterococcus faecium. The test is described as follows: Antibacterial activity against VanA-type vancomycin-resistant Enterococcus faecium A2373. The following applies: Enterococcus faecium, A2373; read-out: MIC.
Test [10] relates to Staphylococcus aureus. The test is described as follows: Ratio of MIC for quinolone-resistant Staphylococcus aureus MS5935 to MIC for quinolone-sensitive Staphylococcus aureus.

Converted amounts (≈) assume the structure as drawn. Some results are limits rather than exact numbers.

Regarding `O=c1ccc2ncc(F)c3c2n1C[C@@]3(O)CC12CCC(NCc3ccc4c(c3Cl)OCCO4)(CC1)CO2`, the MIC in [1] turned out to be 1 µg/mL (≈ 1.89 µM); in test [2], 1 µg/mL (≈ 1.89 µM); in [3] it was 8 µg/mL (≈ 15.2 µM); in [4], 32 µg/mL (≈ 60.6 µM); in [5], 32 µg/mL (≈ 60.6 µM); in [6], 32 µg/mL (≈ 60.6 µM). The MIC in test [7], in test [8] and in test [9] was 32 µg/mL (≈ 60.6 µM) throughout.

As to `O=C1COc2ccc(CNC34CCC(C[C@]5(O)Cn6c(=O)ccc7ncc(F)c5c76)(CC3)OC4)nc2N1`, the MIC in test [1] turned out to be 0.25 µg/mL (≈ 0.493 µM); in test [2], 0.25 µg/mL (≈ 0.493 µM); in test [3] it was 4 µg/mL (≈ 7.88 µM); in test [4], 4 µg/mL (≈ 7.88 µM); in test [5], 2 µg/mL (≈ 3.94 µM); in test [6] it was 16 µg/mL (≈ 31.5 µM). The MIC was determined as 1 µg/mL (≈ 1.97 µM) in test [7], 0.25 µg/mL (≈ 0.493 µM) in test [8] and 8 µg/mL (≈ 15.8 µM) in [9].

For the compound `O=c1ccc2ncc(F)c3c2n1C[C@@]3(O)CC12CCC(NCc3cc4c(cc3Cl)OCCO4)(CC1)CO2`, the MIC in test [1] was 0.25 µg/mL (≈ 0.474 µM); in test [2], 0.5 µg/mL (≈ 0.947 µM); in [3], 4 µg/mL (≈ 7.58 µM); in test [4] it was 32 µg/mL (≈ 60.6 µM); in [5] it was 8 µg/mL (≈ 15.2 µM); in test [6] it was 32 µg/mL (≈ 60.6 µM). Also, the values for the MIC in test [7], in test [8] and in [9] were 32 µg/mL (≈ 60.6 µM), 0.5 µg/mL (≈ 0.947 µM) and 8 µg/mL (≈ 15.2 µM), respectively.

Turning to `N#Cc1c(CNC23CCC(C[C@]4(O)Cn5c(=O)ccc6ncc(F)c4c65)(CC2)OC3)ncc2c1OCCO2`, the MIC in [1] stood at 8 µg/mL (≈ 15.4 µM); in test [2] it was 32 µg/mL (≈ 61.6 µM); in test [3], 32 µg/mL (≈ 61.6 µM); in test [4], 32 µg/mL (≈ 61.6 µM); in test [5] it was 32 µg/mL (≈ 61.6 µM); in test [6], 32 µg/mL (≈ 61.6 µM). Moreover, the MIC in [7], in [8] and in test [9] was 32 µg/mL (≈ 61.6 µM) throughout.

Regarding `O=c1ccc2ncc(F)c3c2n1C[C@@]3(O)CC12CCC(NCc3cc4c(cn3)OCCS4)(CC1)CO2`, the MIC in [1] was determined as 0.25 µg/mL (≈ 0.49 µM); in test [2], 0.5 µg/mL (≈ 0.979 µM); in test [3], 2 µg/mL (≈ 3.92 µM); in test [4], 32 µg/mL (≈ 62.7 µM); in test [5], 4 µg/mL (≈ 7.83 µM); in test [6] it was 32 µg/mL (≈ 62.7 µM). For the same compound, the values for the MIC in test [7], in [8] and in test [9] were 8 µg/mL (≈ 15.7 µM), 1 µg/mL (≈ 1.96 µM) and 8 µg/mL (≈ 15.7 µM), respectively.

With `CN1CCN(C)c2nc(CNC34CCC(C[C@]5(O)Cn6c(=O)ccc7ncc(F)c5c76)(CC3)OC4)ccc21`, the MIC in [1] was 8 µg/mL (≈ 15.4 µM); in test [2], 32 µg/mL (≈ 61.5 µM); in [3], 32 µg/mL (≈ 61.5 µM); in test [4], 32 µg/mL (≈ 61.5 µM); in test [5], 32 µg/mL (≈ 61.5 µM); in test [6] it was 32 µg/mL (≈ 61.5 µM). Moreover, the MIC in test [7], in test [8] and in test [9] was 32 µg/mL (≈ 61.5 µM) throughout.

On to `O=c1ccc2ncc(F)c3c2n1C[C@@]3(O)CC12CCC(NCc3ncc4c(n3)OCCO4)(CC1)CO2`, for which the MIC in [1] was determined as 8 µg/mL (≈ 16.1 µM); in test [2], 4 µg/mL (≈ 8.07 µM); in [3] it was 32 µg/mL (≈ 64.6 µM); in [4], 32 µg/mL (≈ 64.6 µM); in test [5], 32 µg/mL (≈ 64.6 µM); in [6], 32 µg/mL (≈ 64.6 µM). Moreover, the MIC in [7], in [8] and in [9] was 32 µg/mL (≈ 64.6 µM) each time.

As to `O=c1ccc2ncc(F)c3c2n1C[C@@]3(O)CC12CCC(NCc3cc4c(nn3)OCCO4)(CC1)CO2`, the MIC in test [1] is 4 µg/mL (≈ 8.07 µM); in test [2], 2 µg/mL (≈ 4.04 µM); in test [3] it was 8 µg/mL (≈ 16.1 µM); in test [4] it was 32 µg/mL (≈ 64.6 µM); in [5], 32 µg/mL (≈ 64.6 µM); in test [6], 32 µg/mL (≈ 64.6 µM). For the same compound, the MIC in test [7], in test [8] and in test [9] was 32 µg/mL (≈ 64.6 µM) throughout.

In the case of `O=c1ccc2ncc(F)c3c2n1C[C@@]3(O)CC12CCC(NCc3c(Cl)cc4c(c3Cl)OCCO4)(CC1)CO2`, the MIC in test [1] came out at 4 µg/mL (≈ 7.11 µM); in test [2], 4 µg/mL (≈ 7.11 µM); in test [3], 16 µg/mL (≈ 28.4 µM); in test [4], 32 µg/mL (≈ 56.9 µM); in [5], 32 µg/mL (≈ 56.9 µM); in test [6] it was 32 µg/mL (≈ 56.9 µM). Also, the MIC in test [7], in test [8] and in test [9] was 32 µg/mL (≈ 56.9 µM) each time.

As for `COc1ccc2nc(CNC34CCC(C[C@]5(O)Cn6c(=O)ccc7ncc(F)c5c76)(CC3)OC4)c(F)cc2n1`, the MIC in test [1], in [2], in test [3], in test [4], in [5] and in [6] was 16 µg/mL (≈ 29.9 µM) throughout. In addition, the MIC in test [9] turned out to be 16 µg/mL (≈ 29.9 µM). Further, in [10], the Ratio is less than 4.

On to `O=c1ccc2ncc(F)c3c2n1C[C@@]3(O)CC12CCC(NCc3cc4c(cn3)SCCO4)(CC1)CO2`, for which the MIC in [1] worked out at 0.12 µg/mL (≈ 0.235 µM); in test [2], 0.25 µg/mL (≈ 0.49 µM); in test [3] it was 2 µg/mL (≈ 3.92 µM); in test [4], 16 µg/mL (≈ 31.3 µM); in test [5], 2 µg/mL (≈ 3.92 µM); in [6] it was 32 µg/mL (≈ 62.7 µM). The MIC amounted to 8 µg/mL (≈ 15.7 µM) in test [7], 0.5 µg/mL (≈ 0.979 µM) in test [8] and 4 µg/mL (≈ 7.83 µM) in test [9].
